Series [1] concerns L929 fibroblasts. The series is described as follows: MTT cellular viability assay, L929 fibroblasts. The class given is cell-based, mouse. The settings on record: L929, 24 or 48 h, concentrations up to 25 µg/mL. The protocol: Mouse fibroblast cell line L929 (CCL-1, ATCC, USA) and mouse melanoma cell B16 (ATCC CRL-6475, USA) were grown in DMEM (Dulbecco’s Modified Eagle Medium) supplemented with 2 mM L-Glutamine, 10% fetal calf serum (FCS), 100 units/mL of penicillin, and 100 µg/mL of streptomycin. They were kept at 37 °C in a humidified incubator under an atmosphere containing 5% CO2. All cell-cultivation media and reagents were purchased from Biochrom AG (Berlin, Germany) and Sigma-Aldrich (Darmstadt, Germany).
To test cellular viability, we used the MTT assay (3-(4,5-dimethylthiazol-2-yl)-2,5-diphenyltetrazolium bromide) colorimetric assay as previously described. Briefly, L929 and B16 cells were seeded in 96-well plates at a density of 5000 cells/well and grown in the culture medium for 24 h. […] The absorbance of the samples was recorded at λ = 570 nm using a plate reader (Mithras 940, Berthold, Bad Wildbad, Germany). The data were corrected for background absorbance, and the viability was calculated using the following formula:% viable cells = [(A570 of treated cells)/(A570 of untreated cells)] × 100 (%)
Half-maximal inhibitory concentration (IC50) was determined by fitting the data with a sigmoidal logistic function using Origin 8.1 (Microcal Inc., Northampton, MA, USA) software.

The next series deals with L929 cells. The series is described as follows: Cell cycle analysis by flow cytometry, L929. As to conditions: L929, 24 h, 1.56 and/or 6.25 µg/mL. In kind it is cell-based, mouse. As for the experimental part:
(§1) A flow cytometry analysis was used to check the possible influence of the tested compounds on the cell cycle of both cellular lines L929 and B16. Before treatment, 25,000 cells per well were seeded in 24-well plates and treated with 2 concentrations of the compounds (1.56 and 6.25 µg/mL) for 24 h. After treatment, cells were detached, washed with cold PBS, and then resuspended in cold PBS mixed with 100% ethanol and kept at −20 °C for at least 24 h for fixation. The following day, the cells were stained using a 0.1% Triton-X in PBS containing 0.2 mg/mL RNAase and 20 µg/mL propidium iodide. The samples were incubated for 30 min at 37 °C in the dark. After incubation with the staining solution, the cells were washed with PBS and resuspended in 100 µL PBS. The cell cycle measurement was made using CytoFLEX (Beckman Coulter, Brea, CA, USA) by recording 30,000 events/sample. All experiments were made in triplicate, each having at least 2 wells per condition. The data was evaluated using the CytoFLEX software.

For series [2], the system named is Escherichia coli ATCC 25922. The series is described as follows: Microdilution MIC assay, planktonic E. coli. The class given is cell-based. As to conditions: this paper. The protocol:
(§2) The antibacterial activity of the inclusion complexes was evaluated on the Gram-negative Escherichia coli ATCC 25922 and Gram-positive Staphylococcus aureus ATCC 25923 reference bacterial strains. The antibacterial activity of the β-CD, precursor complexes, and inclusion complexes was evaluated against planktonic and biofilm-embedded cells to obtain the minimum inhibitory (MIC) and minimum biofilm eradication (MBEC) concentrations, respectively. The antibacterial activity assays were carried out on the Gram-negative E. coli ATCC 25922 and the Gram-positive S. aureus ATCC 25923 reference strains. The antimicrobial activity of the β-CD inclusion complexes versus the β-CD and Cu(II) complexes against planktonic bacterial cells was assessed using the microdilution assay, allowing MIC determination. Anti-biofilm activity was evaluated using the crystal-violet microtiter to determine the MBEC [25]. All experiments were performed in triplicate. In both assays, serial binary concentrations ranging from 8.81 to 0.013 mM were used.
For orientation: Dilution methods test growth across graded concentrations, often in twofold steps.

Another series has as its system B16 cells. The series is described as follows: Cell cycle analysis by flow cytometry, B16. The class given is cell-based, mouse. The settings on record: B16, 24 h, irrespective of the tested concentration (1.56 and/or 6.25 µg/mL). As for the experimental part:
as §1
A general note: A flow cytometer gives signals particle by particle.

The test system of series [3] is Staphylococcus aureus ATCC 25923. The series is described as follows: Microdilution MIC assay, planktonic S. aureus. In kind it is cell-based. The settings on record: S. aureus 25923, planktonic cells, this paper. The protocol:
as §2

The format of series [4] is physicochemical. An excerpt: Compound (1) follows a linear profile described in the literature as an AL type, according to Higuchi and Connors. This behavior corresponds to a molar ratio of 1:1 between (1a) and β-CD, similar to that obtained using Job’s method. […] This value confirms that the equilibrium between (1) and β-CD shifts to the product, indicating a high tendency of (1) to enter the cavity of β-CD together with good stability of the (1a)@β-CD complex. […] Higuchi described this model as being AP, meaning a positive deviation from the linearity, corresponding to a 1:2 molar ratio between (2) and β-CD, in very good agreement with results obtained by Job’s method. This type of stoichiometry literature indicates a possibility of evaluating the stability constant starting from the equation of a quadratic model. Even if this is not a perfect model and the value calculated is affected by an error ~30%, reliable information about the stability of the (2a)@β -CD complex could be obtained. The model ensures the calculation of K1:1 and K1:2. The obtained values were 20.44 and 6 M^–1.
The method settled for phase-solubility studies was adapted from a previous paper. First, calibration curves for (1) and (2) were obtained. For this purpose, successive dilutions from the stock solution were performed, spectra were recorded and absorbance reeded 312 nm (1) and 272 nm (2). The plot of absorbance versus concentration gives two straight lines for both (1) and (2) complexes: y = 0.5111x − 0.0323 (R^2 = 0.9996) and y = 18.792x − 0.0323 (R^2 = 0.9996), respectively. Second, water and β-CD 20 mM were added to six samples containing an excess of complex (50 mg) that had the same volume but increasing β-CD concentration. In all experiments, the final volume was 5 mL. The samples were shaken for 1 h, filtered using 0.25 µm PTFE, and the solution was diluted to 1:25 mL before the spectra were recorded. The concentration of the complex in each solution was calculated using a calibration curve described above. In the end, the phase solubility diagrams were obtained by plotting the concentration of the complex versus the concentration of β-CD. The stability constants were calculated from the phase-solubility diagram as follows: (i) Kc = slope/[So × (1 − slope)], where So is the complex’s solubility in the absence of β-CD, for a 1:1 mole ratio, and (ii) STotal = S0 + K1:1[β-CD] + K1:1K1:2[β-CD]^2, where K1:1 and K1:2 are constants for 1:1 and 1:2 host–guest complexes and STotal is the total solubility of complex, for a 1:2 stoichiometry.

For series [5], the system named is Escherichia coli ATCC 25922. More on the design: method as in PMID 34833864. The settings on record: E. coli, planktonic cells; ref [25]; cited from earlier work.
Series [6] deals with Staphylococcus aureus ATCC 25923. Details: method as in PMID 34833864. As to conditions: S. aureus 25923, planktonic cells; ref [25]; cited from earlier work.
The subject of the next series is B16 melanoma cells. More on the design: method as in PMID 34833864. As to conditions: ref [25], cited from earlier work.
Another series relates to biofilm-embedded cells. The series is described as follows: Crystal-violet microtiter anti-biofilm assay (MBEC). The class given is cell-based. As for the experimental part:
as §2

In series [7] the test system is L929 fibroblasts. Details: method as in PMID 34833864. As to conditions: L929, time not stated; ref [25]; cited from earlier work.
Details of series [8]: method as in PMID 34833864. As to conditions: ref [25]; cited from earlier work.

Converted amounts (≈) assume the structure as drawn. Where two headings read alike, the source gives them in different places.

Regarding `OC[C@H]1O[C@@H]2O[C@H]3[C@H](O)[C@@H](O)[C@@H](O[C@H]4[C@H](O)[C@@H](O)[C@@H](O[C@H]5[C@H](O)[C@@H](O)[C@@H](O[C@H]6[C@H](O)[C@@H](O)[C@@H](O[C@H]7[C@H](O)[C@@H](O)[C@@H](O[C@H]8[C@H](O)[C@@H](O)[C@@H](O[C@H]1[C@H](O)[C@H]2O)O[C@@H]8CO)O[C@@H]7CO)O[C@@H]6CO)O[C@@H]5CO)O[C@@H]4CO)O[C@@H]3CO` [β-CD, β-cyclodextrin], the “effect on viability of normal fibroblast cells” value in the series with L929 fibroblasts [1] is “did not affect the viability”. For the same compound, the “change of number of cells in either cell cycle phase” value with L929 cells is “did not significantly alter”. Moreover, the MIC in series [2] (Escherichia coli, ATCC25922, planktonic cells, read-out: MIC) was 8.81 mM (≈ 10000 µg/mL); in [2] (planktonic cells), “no activity”; in series [3] it was “no activity”; in [3] (Staphylococcus aureus, ATCC25923, read-out: MIC), 8.81 mM (≈ 10000 µg/mL). Further, in the series with B16 cells, the “change of number of cells in cell cycle phases” value was “did not significantly alter”.

Consider “[Cu(bipy)(dmtp)2(OH2)](ClO4)2@β-CD [(1a)@β-CD]”, for which the “Kc (stability constant, 1:1)” value in [4] is given as 250 M^–1.

For the compound “[Cu(bipy)(dmtp)2(OH2)](ClO4)2·dmtp [(1)]”, in series [4], the “solubilization in water in the presence of β-CD” value is listed as “solubilized in water”. Also, the MIC in [5] was 0.71 mM; in series [6] it was 0.18 mM. Besides, the “IC50 against B16 cells” value in the series with B16 melanoma cells (B16, previous study) is reported as “no IC50 could be calculated”. For the same compound, the antibiofilm activity entry in the series on biofilm-embedded cells is on record as “exhibit antibiofilm activity”.

For “[Cu(phen)(dmtp)2(OH2)](ClO4)2@β-CD [(2a)@β-CD]”, in series [4], the “K1:1 (stability constant)” value was 20.44 M^–1 and the “K1:2 (stability constant)” value was determined as 6 M^–1.

Regarding “[Cu(phen)(dmtp)2(OH2)](ClO4)2·dmtp [(2)]”, the 50% inhibitory concentration (IC50) was 15 µM with L929 fibroblasts [7]; 7.6 µM in the series with B16 melanoma cells (B16, 24 h, read-out: IC50 against B16 cells 24 h); 4.58 µM with B16 melanoma cells (B16, 48 h, read-out: IC50 against B16 cells 48 h). Further, the “IC50 L929” value with L929 fibroblasts [7] was 13.61 µg/mL. Besides, in [8], the “scavenging of OH· radicals” value is “not observed”. Also, the “solubilization in water in the presence of β-CD” value in series [4] is on record as “solubilized in water”. In addition, the MIC in series [5] is reported as 0.34 mM; in [6], 0.04 mM. In the series with B16 melanoma cells (B16, 24 h), the “IC50 against B16 cells 24 h” value is on record as 6.88 µg/mL. Also, the “IC50 against B16 cells 48 h” value in the series on B16 melanoma cells (B16, 48 h) is reported as 4.15 µg/mL. In the series with biofilm-embedded cells, the antibiofilm activity result is “exhibit antibiofilm activity”.

Broadly, the MIC is the lowest concentration found to suppress growth. As a reminder, the IC50 is the concentration that gives 50% inhibition.

(Values after publication PMC9916925, “Copper (II) Species with Improved Anti-Melanoma and Antibacterial Activity by Inclusion in β-Cyclodextrin” (International Journal of Molecular Sciences, 2023).)
